Patent US11053204B2, “Pyrimidinyloxy benzene derivatives as herbicides” (FMC Corporation, priority 2015, dated 2021)

Experiments:
Test in all cases: Test C postemergence, plant response rating
Format in all cases: in vivo
[1] = tested on: barnyardgrass (Echinochloa crus-galli); details: for Plant response rating, Barnyardgrass: scale 0 to 100; for Barnyardgrass plant response rating: scale 0 to 100 (0 no effect, 100 complete control)
In short: (§1)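 Pre-emergence: seeds sown in loam soil–sand blend or silt loam and sprayed with test chemicals in a non-phytotoxic solvent mixture with surfactant. Post-emergence: plants 2 to 18 cm (1- to 4-leaf stage) in peat-based potting medium, same formulation. Greenhouse 13 to 15 d; visual rating 0 (no effect) to 100 (complete control) versus controls.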

[2] = tested on: blackgrass (Alopecurus myosuroides); details: for Plant response rating, Blackgrass: scale 0 to 100; for Blackgrass plant response rating: scale 0 to 100 (0 no effect, 100 complete control)
In short: as §1

[3] = tested on: chickweed (common chickweed, Stellaria media); details: for Chickweed plant response rating: scale 0 to 100 (0 no effect, 100 complete control)
In short: as §1

[4] = tested on: lambsquarters (Chenopodium album); details: for Lambsquarters plant response rating: scale 0 to 100 (0 no effect, 100 complete control)
In short: as §1

[5] = tested on: morningglory (Ipomoea coccinea); details: for Morningglory plant response rating: scale 0 to 100 (0 no effect, 100 complete control)
In short: as §1

[6] = tested on: nutsedge, yellow (yellow nutsedge, Cyperus esculentus); details: for Nutsedge, Yellow plant response rating: scale 0 to 100 (0 no effect, 100 complete control)
In short: as §1

[7] = tested on: oat, wild (wild oat Avena fatua); details: for Oat, Wild plant response rating: scale 0 to 100 (0 no effect, 100 complete control)
In short: as §1

[8] = tested on: ragweed (common ragweed, Ambrosia elatior); details: for Ragweed plant response rating: scale 0 to 100 (0 no effect, 100 complete control)
In short: as §1

[9] = tested on: ryegrass, Italian (Italian ryegrass, Lolium multiflorum); details: for Ryegrass, Italian plant response rating: scale 0 to 100 (0 no effect, 100 complete control)
In short: as §1

[10] = tested on: velvetleaf (Abutilon theophrasti); details: for Velvetleaf plant response rating: scale 0 to 100 (0 no effect, 100 complete control)
In short: as §1

[11] = tested on: wheat (winter wheat, Triticum aestivum); details: for Wheat plant response rating: scale 0 to 100 (0 no effect, 100 complete control)
In short: as §1

## O=C(OCC(F)(F)F)c1c(Br)cccc1Oc1ncc(Cl)cn1 [Compound 35]
[1]; 16 g ai/ha
  Plant response rating, Barnyardgrass: 5
[1]; 31 g ai/ha
  Plant response rating, Barnyardgrass: 5
[1]; 62 g ai/ha
  Barnyardgrass plant response rating: 10
[1]; 125 g ai/ha
  Barnyardgrass plant response rating: 15
[2]; 16 g ai/ha
  Plant response rating, Blackgrass: 0
[2]; 31 g ai/ha
  Plant response rating, Blackgrass: 0
[2]; 62 g ai/ha
  Blackgrass plant response rating: 10
[2]; 125 g ai/ha
  Blackgrass plant response rating: 10
[3]; 16 g ai/ha, scale 0 to 100
  Plant response rating, Chickweed: 5
[3]; 31 g ai/ha, scale 0 to 100
  Plant response rating, Chickweed: 40
[3]; 62 g ai/ha
  Chickweed plant response rating: 45
[3]; 125 g ai/ha
  Chickweed plant response rating: 50
[4]; 16 g ai/ha, scale 0 to 100
  Plant response rating, Lambsquarters: 50
[4]; 31 g ai/ha, scale 0 to 100
  Plant response rating, Lambsquarters: 40
[4]; 62 g ai/ha
  Lambsquarters plant response rating: 65
[4]; 125 g ai/ha
  Lambsquarters plant response rating: 70
[5]; 16 g ai/ha, scale 0 to 100
  Plant response rating, Morningglory: 40
[5]; 31 g ai/ha, scale 0 to 100
  Plant response rating, Morningglory: 50
[5]; 62 g ai/ha
  Morningglory plant response rating: 60
[5]; 125 g ai/ha
  Morningglory plant response rating: 60
[6]; 16 g ai/ha, scale 0 to 100
  Plant response rating, Nutsedge, Yellow: 0
[6]; 31 g ai/ha, scale 0 to 100
  Plant response rating, Nutsedge, Yellow: 0
[6]; 62 g ai/ha
  Nutsedge, Yellow plant response rating: 0
[6]; 125 g ai/ha
  Nutsedge, Yellow plant response rating: 5
[7]; 16 g ai/ha, scale 0 to 100
  Plant response rating, Oat, Wild: 0
[7]; 31 g ai/ha, scale 0 to 100
  Plant response rating, Oat, Wild: 0
[7]; 62 g ai/ha
  Oat, Wild plant response rating: 0
[7]; 125 g ai/ha
  Oat, Wild plant response rating: 0
[8]; 16 g ai/ha, scale 0 to 100
  Plant response rating, Ragweed: 0
[8]; 31 g ai/ha, scale 0 to 100
  Plant response rating, Ragweed: 5
[8]; 62 g ai/ha
  Ragweed plant response rating: 10
[8]; 125 g ai/ha
  Ragweed plant response rating: 20
[9]; 16 g ai/ha, scale 0 to 100
  Plant response rating, Ryegrass, Italian: 0
[9]; 31 g ai/ha, scale 0 to 100
  Plant response rating, Ryegrass, Italian: 0
[9]; 62 g ai/ha
  Ryegrass, Italian plant response rating: 5
[9]; 125 g ai/ha
  Ryegrass, Italian plant response rating: 5
[10]; 16 g ai/ha, scale 0 to 100
  Plant response rating, Velvetleaf: 40
[10]; 31 g ai/ha, scale 0 to 100
  Plant response rating, Velvetleaf: 30
[10]; 62 g ai/ha
  Velvetleaf plant response rating: 35
[10]; 125 g ai/ha
  Velvetleaf plant response rating: 40
[11]; 16 g ai/ha, scale 0 to 100
  Plant response rating, Wheat: 0
[11]; 31 g ai/ha, scale 0 to 100
  Plant response rating, Wheat: 0
[11]; 62 g ai/ha
  Wheat plant response rating: 0
[11]; 125 g ai/ha
  Wheat plant response rating: 0

## O=C(CCC(F)(F)C(F)(F)F)c1c(Br)cccc1Oc1ncc(Cl)cn1 [Compound 110]
[1]; 16 g ai/ha
  Plant response rating, Barnyardgrass: 10
[1]; 31 g ai/ha
  Plant response rating, Barnyardgrass: 10
[1]; 62 g ai/ha
  Barnyardgrass plant response rating: 20
[1]; 125 g ai/ha
  Barnyardgrass plant response rating: 30
[2]; 16 g ai/ha
  Plant response rating, Blackgrass: 10
[2]; 31 g ai/ha
  Plant response rating, Blackgrass: 15
[2]; 62 g ai/ha
  Blackgrass plant response rating: 20
[2]; 125 g ai/ha
  Blackgrass plant response rating: 25
[3]; 16 g ai/ha, scale of 0 to 100
  Plant response rating, Chickweed: 60
[3]; 31 g ai/ha, scale 0 to 100
  Plant response rating, Chickweed: 95
[3]; 62 g ai/ha
  Chickweed plant response rating: 95
[3]; 125 g ai/ha
  Chickweed plant response rating: 90
[4]; 16 g ai/ha, scale of 0 to 100
  Plant response rating, Lambsquarters: 75
[4]; 31 g ai/ha, scale 0 to 100
  Plant response rating, Lambsquarters: 90
[4]; 62 g ai/ha
  Lambsquarters plant response rating: 95
[4]; 125 g ai/ha
  Lambsquarters plant response rating: 98
[5]; 16 g ai/ha, scale of 0 to 100
  Plant response rating, Morningglory: 30
[5]; 31 g ai/ha, scale 0 to 100
  Plant response rating, Morningglory: 50
[5]; 62 g ai/ha
  Morningglory plant response rating: 60
[5]; 125 g ai/ha
  Morningglory plant response rating: 50
[6]; 16 g ai/ha, scale of 0 to 100
  Plant response rating, Nutsedge, Yellow: 0
[6]; 31 g ai/ha, scale 0 to 100
  Plant response rating, Nutsedge, Yellow: 5
[6]; 62 g ai/ha
  Nutsedge, Yellow plant response rating: 5
[6]; 125 g ai/ha
  Nutsedge, Yellow plant response rating: 5
[7]; 16 g ai/ha, scale of 0 to 100
  Plant response rating, Oat, Wild: 20
[7]; 31 g ai/ha, scale 0 to 100
  Plant response rating, Oat, Wild: 30
[7]; 62 g ai/ha
  Oat, Wild plant response rating: 45
[7]; 125 g ai/ha
  Oat, Wild plant response rating: 55
[8]; 16 g ai/ha, scale of 0 to 100
  Plant response rating, Ragweed: 40
[8]; 31 g ai/ha, scale 0 to 100
  Plant response rating, Ragweed: 50
[8]; 62 g ai/ha
  Ragweed plant response rating: 60
[8]; 125 g ai/ha
  Ragweed plant response rating: 60
[9]; 16 g ai/ha, scale of 0 to 100
  Plant response rating, Ryegrass, Italian: 5
[9]; 31 g ai/ha, scale 0 to 100
  Plant response rating, Ryegrass, Italian: 10
[9]; 62 g ai/ha
  Ryegrass, Italian plant response rating: 15
[9]; 125 g ai/ha
  Ryegrass, Italian plant response rating: 20
[10]; 16 g ai/ha, scale of 0 to 100
  Plant response rating, Velvetleaf: 50
[10]; 31 g ai/ha, scale 0 to 100
  Plant response rating, Velvetleaf: 40
[10]; 125 g ai/ha
  Velvetleaf plant response rating: 75
[11]; 16 g ai/ha, scale of 0 to 100
  Plant response rating, Wheat: 5
[11]; 31 g ai/ha, scale 0 to 100
  Plant response rating, Wheat: 5
[11]; 125 g ai/ha
  Wheat plant response rating: 15

## FC(F)(F)CCCCc1c(Cl)cccc1Oc1ncc(Cl)cn1 [Compound 137]
[1]; 16 g ai/ha
  Plant response rating, Barnyardgrass: 10
[1]; 31 g ai/ha
  Plant response rating, Barnyardgrass: 10
[1]; 62 g ai/ha
  Barnyardgrass plant response rating: 20
[1]; 125 g ai/ha
  Barnyardgrass plant response rating: 40
[2]; 16 g ai/ha
  Plant response rating, Blackgrass: 5
[2]; 31 g ai/ha
  Plant response rating, Blackgrass: 10
[2]; 62 g ai/ha
  Blackgrass plant response rating: 15
[2]; 125 g ai/ha
  Blackgrass plant response rating: 40
[3]; 16 g ai/ha, scale of 0 to 100
  Plant response rating, Chickweed: 70
[3]; 31 g ai/ha, scale 0 to 100
  Plant response rating, Chickweed: 55
[3]; 62 g ai/ha
  Chickweed plant response rating: 90
[3]; 125 g ai/ha
  Chickweed plant response rating: 100
[4]; 16 g ai/ha, scale of 0 to 100
  Plant response rating, Lambsquarters: 55
[4]; 31 g ai/ha, scale 0 to 100
  Plant response rating, Lambsquarters: 75
[4]; 62 g ai/ha
  Lambsquarters plant response rating: 85
[4]; 125 g ai/ha
  Lambsquarters plant response rating: 90
[5]; 16 g ai/ha, scale of 0 to 100
  Plant response rating, Morningglory: 10
[5]; 31 g ai/ha, scale 0 to 100
  Plant response rating, Morningglory: 15
[5]; 62 g ai/ha
  Morningglory plant response rating: 20
[5]; 125 g ai/ha
  Morningglory plant response rating: 20
[6]; 16 g ai/ha, scale of 0 to 100
  Plant response rating, Nutsedge, Yellow: 0
[6]; 31 g ai/ha, scale 0 to 100
  Plant response rating, Nutsedge, Yellow: 0
[6]; 62 g ai/ha
  Nutsedge, Yellow plant response rating: 10
[6]; 125 g ai/ha
  Nutsedge, Yellow plant response rating: 5
[7]; 16 g ai/ha, scale of 0 to 100
  Plant response rating, Oat, Wild: 5
[7]; 31 g ai/ha, scale 0 to 100
  Plant response rating, Oat, Wild: 10
[7]; 62 g ai/ha
  Oat, Wild plant response rating: 10
[7]; 125 g ai/ha
  Oat, Wild plant response rating: 10
[8]; 16 g ai/ha, scale of 0 to 100
  Plant response rating, Ragweed: 20
[8]; 31 g ai/ha, scale 0 to 100
  Plant response rating, Ragweed: 35
[8]; 62 g ai/ha
  Ragweed plant response rating: 30
[8]; 125 g ai/ha
  Ragweed plant response rating: 30
[9]; 16 g ai/ha, scale of 0 to 100
  Plant response rating, Ryegrass, Italian: 5
[9]; 31 g ai/ha, scale 0 to 100
  Plant response rating, Ryegrass, Italian: 5
[9]; 62 g ai/ha
  Ryegrass, Italian plant response rating: 5
[9]; 125 g ai/ha
  Ryegrass, Italian plant response rating: 10
[10]; 16 g ai/ha, scale of 0 to 100
  Plant response rating, Velvetleaf: 10
[10]; 31 g ai/ha, scale 0 to 100
  Plant response rating, Velvetleaf: 15
[10]; 125 g ai/ha
  Velvetleaf plant response rating: 70
[11]; 16 g ai/ha, scale of 0 to 100
  Plant response rating, Wheat: 5
[11]; 31 g ai/ha, scale 0 to 100
  Plant response rating, Wheat: 5
[11]; 125 g ai/ha
  Wheat plant response rating: 20
